Results reported in ChEMBL document CHEMBL1138760, “Conformationally constrained analogues of diacylglycerol (DAG). 23. Hydrophobic ligand-protein interactions versus ligand-lipid interactions of DAG-lactones with protein kinase C (PK-C)” (J Med Chem, 2004).

Key:
[1] = Binding affinity for protein kinase C-alpha C1a and C1b domains
[2] = biological target: Protein kinase C delta type (Homo sapiens, UniProt Q05655); test: Binding affinity for isolated C1b domain of protein kinase C-delta
Protein kinase C delta type, sequence (Q05655 whole entry, the tested form may be a part): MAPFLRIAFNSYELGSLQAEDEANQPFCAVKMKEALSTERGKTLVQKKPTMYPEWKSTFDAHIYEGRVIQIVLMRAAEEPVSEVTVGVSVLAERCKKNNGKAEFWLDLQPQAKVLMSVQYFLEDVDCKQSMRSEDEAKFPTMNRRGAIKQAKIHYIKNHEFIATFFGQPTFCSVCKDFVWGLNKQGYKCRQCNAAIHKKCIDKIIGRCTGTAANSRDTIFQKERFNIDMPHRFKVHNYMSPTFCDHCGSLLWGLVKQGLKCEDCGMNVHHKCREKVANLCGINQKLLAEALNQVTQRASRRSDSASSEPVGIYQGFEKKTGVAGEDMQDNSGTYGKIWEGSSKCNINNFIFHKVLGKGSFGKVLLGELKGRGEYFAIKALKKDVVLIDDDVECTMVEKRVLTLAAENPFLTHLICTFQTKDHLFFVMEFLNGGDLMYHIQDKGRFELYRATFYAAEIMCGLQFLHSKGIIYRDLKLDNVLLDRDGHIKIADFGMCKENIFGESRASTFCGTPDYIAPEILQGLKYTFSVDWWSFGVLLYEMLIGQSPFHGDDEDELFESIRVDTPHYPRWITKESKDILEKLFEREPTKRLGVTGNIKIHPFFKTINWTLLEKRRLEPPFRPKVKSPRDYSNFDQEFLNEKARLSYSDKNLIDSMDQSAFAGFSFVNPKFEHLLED

Compound | Ki [1] [nM] | Ki [2] [nM]
CC(C)C(C/C=C1\CC(CO)(COC(=O)C(C)(C)C)OC1=O)C(C)C (stereo not drawn) | 11.2 | –
CC(C)CC(C/C=C1/CC(CO)(COC(=O)C(C)(C)C)OC1=O)CC(C)C (stereo not drawn) | 2.9 | 1.16
CC(C)C(C/C=C1/C(=O)OC(CO)(COC(=O)C(C)(C)C)C1(C)C)C(C)C (stereo not drawn) | – | 3470
CC(C)CC(C/C=C1\CC(CO)(COC(=O)C(C)(C)C)OC1=O)CC(C)C (stereo not drawn) | 3.25 | 0.9
CC(C)C(C/C=C1/CC(CO)(COC(=O)C(C)(C)C)OC1=O)C(C)C (stereo not drawn) | 8.32 | –
CC(C)C(C/C=C1\C(=O)OC(CO)(COC(=O)C(C)(C)C)C1(C)C)C(C)C (stereo not drawn) | – | 1460
